Patent publication US20240158370A1, “CK1 alpha AND DUAL CK1 alpha / GSPT1 DEGRADING COMPOUNDS” (Innovo Therapeutics, Inc., priority 2022, published 2024)

Legend:
CK1α = target: T1, CK1α (Homo sapiens, UniProt P48729+Q96SW2); assay: HiBiT degradation assay, CK1α, Procedure A; format: cell-based; conditions: six hours
T1 construct: CSNK1A1-HiBit KI HEK293(LgBit) Cells; host or cells: HEK293(LgBit) knock-in cells
Summary of the method: (§1)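 Cells in DMEM+10% FBS at 1×10^6 cells/ml were added to pre-spotted compound (10-point dose response, 10 μM to 0.005 μM, 0.1% DMSO) and incubated 6 h at 37° C. Nano-Glo HiBiT lytic reagent was added and luminescence read. DC50 and Ymin came from 4-parameter curve fits.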

GSPT1 = GSPT1 (Homo sapiens, UniProt P15170+Q96SW2); assay: HiBiT degradation assay, GSPT1, Procedure A; format: cell-based; parameters: HiBit-GSPT1 KI HEK293(LgBit) Cells; host or cells: HEK293(LgBit) knock-in cells; conditions: six hours
Summary of the method: as §1

Sequence of GSPT1 (P15170 whole entry): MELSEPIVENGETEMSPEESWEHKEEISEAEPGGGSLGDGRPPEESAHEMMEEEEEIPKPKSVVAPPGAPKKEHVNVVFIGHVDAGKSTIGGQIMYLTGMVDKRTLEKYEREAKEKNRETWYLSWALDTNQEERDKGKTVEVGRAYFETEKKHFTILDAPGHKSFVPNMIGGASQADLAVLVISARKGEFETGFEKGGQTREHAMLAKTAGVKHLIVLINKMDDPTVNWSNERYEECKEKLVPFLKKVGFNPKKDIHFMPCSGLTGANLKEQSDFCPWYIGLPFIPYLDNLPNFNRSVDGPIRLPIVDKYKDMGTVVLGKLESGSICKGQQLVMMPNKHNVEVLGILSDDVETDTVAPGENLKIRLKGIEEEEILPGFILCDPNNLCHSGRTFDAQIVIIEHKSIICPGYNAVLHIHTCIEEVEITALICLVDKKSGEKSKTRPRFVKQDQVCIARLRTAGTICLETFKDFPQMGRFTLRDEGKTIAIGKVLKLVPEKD
Sequence of GSPT1 (Q96SW2 whole entry): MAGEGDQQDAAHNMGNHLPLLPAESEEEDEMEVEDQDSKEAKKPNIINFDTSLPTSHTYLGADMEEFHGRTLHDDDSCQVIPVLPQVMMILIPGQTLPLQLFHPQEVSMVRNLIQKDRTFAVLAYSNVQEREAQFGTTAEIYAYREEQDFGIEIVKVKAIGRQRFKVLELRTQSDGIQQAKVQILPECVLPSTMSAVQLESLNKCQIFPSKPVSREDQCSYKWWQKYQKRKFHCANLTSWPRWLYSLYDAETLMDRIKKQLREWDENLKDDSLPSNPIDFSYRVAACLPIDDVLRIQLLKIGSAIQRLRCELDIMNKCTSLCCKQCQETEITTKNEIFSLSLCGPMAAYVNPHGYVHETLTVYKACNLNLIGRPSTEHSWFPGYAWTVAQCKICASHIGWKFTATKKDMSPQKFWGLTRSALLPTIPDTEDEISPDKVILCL
Sequence of GSPT1 (Q16531 whole entry partner): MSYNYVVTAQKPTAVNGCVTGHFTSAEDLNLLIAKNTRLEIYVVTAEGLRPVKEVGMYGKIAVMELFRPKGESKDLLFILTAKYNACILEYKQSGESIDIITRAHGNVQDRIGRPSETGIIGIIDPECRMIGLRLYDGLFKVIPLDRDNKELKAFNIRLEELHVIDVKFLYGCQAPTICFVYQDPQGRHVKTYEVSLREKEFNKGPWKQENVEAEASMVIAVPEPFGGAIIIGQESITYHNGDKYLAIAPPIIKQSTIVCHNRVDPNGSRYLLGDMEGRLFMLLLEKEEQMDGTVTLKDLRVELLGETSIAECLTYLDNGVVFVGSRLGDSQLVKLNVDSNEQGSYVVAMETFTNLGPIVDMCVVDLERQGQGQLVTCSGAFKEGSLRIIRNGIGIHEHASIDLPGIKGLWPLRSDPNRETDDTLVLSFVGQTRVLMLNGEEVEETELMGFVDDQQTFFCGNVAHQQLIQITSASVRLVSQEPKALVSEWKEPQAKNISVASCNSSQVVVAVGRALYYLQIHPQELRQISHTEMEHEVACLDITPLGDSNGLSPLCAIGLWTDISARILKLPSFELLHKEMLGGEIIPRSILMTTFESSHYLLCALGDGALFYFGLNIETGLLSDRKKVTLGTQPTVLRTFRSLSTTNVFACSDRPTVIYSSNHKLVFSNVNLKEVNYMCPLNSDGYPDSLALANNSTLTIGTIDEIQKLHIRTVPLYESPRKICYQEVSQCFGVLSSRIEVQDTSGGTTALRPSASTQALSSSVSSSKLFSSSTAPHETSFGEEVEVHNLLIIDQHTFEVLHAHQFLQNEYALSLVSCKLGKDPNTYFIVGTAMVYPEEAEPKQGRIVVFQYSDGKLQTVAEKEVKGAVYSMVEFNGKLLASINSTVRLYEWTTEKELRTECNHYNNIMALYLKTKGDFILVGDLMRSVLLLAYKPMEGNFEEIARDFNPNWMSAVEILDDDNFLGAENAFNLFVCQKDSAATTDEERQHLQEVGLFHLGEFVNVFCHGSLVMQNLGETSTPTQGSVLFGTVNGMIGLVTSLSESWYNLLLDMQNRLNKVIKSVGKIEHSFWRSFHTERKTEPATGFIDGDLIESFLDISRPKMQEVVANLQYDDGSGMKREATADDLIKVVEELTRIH
T1 sequence (P48729 whole entry): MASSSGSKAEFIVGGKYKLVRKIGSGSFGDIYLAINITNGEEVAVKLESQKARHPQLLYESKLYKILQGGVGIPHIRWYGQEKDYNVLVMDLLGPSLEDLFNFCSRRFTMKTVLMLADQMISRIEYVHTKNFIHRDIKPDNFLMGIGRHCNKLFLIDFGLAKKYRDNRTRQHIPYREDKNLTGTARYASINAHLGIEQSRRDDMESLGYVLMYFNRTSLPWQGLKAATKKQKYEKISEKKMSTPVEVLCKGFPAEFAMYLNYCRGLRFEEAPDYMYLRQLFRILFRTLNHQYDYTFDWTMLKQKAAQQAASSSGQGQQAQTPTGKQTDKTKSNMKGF
T1 sequence (Q96SW2 whole entry): as the sequence (Q96SW2 whole entry) above
T1 sequence (Q16531 whole entry partner): as the sequence (Q16531 whole entry partner) above

SMILES	CK1α Ymin (CK1α)	DC50 (CK1α) [nM]	DC50 (GSPT1) [nM]	GSPT1 Ymin (GSPT1)
Cc1c(-c2c(-c3ccc4c(c3)CN(C3CCC(=O)NC3=O)C4=O)cnn2C)cnn1-c1ccccc1 (centres unmarked) [Example 481]	E (E = >25-75% remaining)	≥ 25	< 25	F (F = >75-100% remaining)
Cn1cnc(-c2ccc3c(c2)CN(C2CCC(=O)NC2=O)C3=O)c1-c1cnc(N)nc1 (centres unmarked) [Example 485]	E (E = >25-75% remaining)	≥ 25	≥ 25	F (F = >75-100% remaining)
Cn1cnc(-c2ccc3c(c2)CN(C2CCC(=O)NC2=O)C3=O)c1-c1ccc2ncnn2c1 (centres unmarked) [Example 490]	E (E = >25-75% remaining)	≥ 25	≥ 25	F (F = >75-100% remaining)
Cn1cnc(-c2ccc3c(c2)CN(C2CCC(=O)NC2=O)C3=O)c1-c1cnn(C(C)(C)C)c1 (centres unmarked) [Example 492]	F (F = >75-100% remaining)	≥ 25	≥ 25	F (F = >75-100% remaining)
Cn1cnc(-c2ccc3c(c2)CN(C2CCC(=O)NC2=O)C3=O)c1-c1ccc2nccnc2c1 (centres unmarked) [Example 494]	E (E = >25-75% remaining)	≥ 25	≥ 25	F (F = >75-100% remaining)
Cn1cnc(-c2ccc3c(c2)CN(C2CCC(=O)NC2=O)C3=O)c1-c1cnn(CC(F)F)c1 (centres unmarked) [Example 497]	D (D = >10- 25% remaining)	≥ 25	≥ 25	F (F = >75-100% remaining)
Cn1cnc(-c2ccc3c(c2)CN(C2CCC(=O)NC2=O)C3=O)c1-c1ccc2ncsc2c1 (centres unmarked) [Example 502]	C (C = 0-10% remaining)	< 25	< 25	E (E = >25-75% remaining)
Cn1cnc(-c2ccc3c(c2)CN(C2CCC(=O)NC2=O)C3=O)c1-c1cnn(Cc2cccnc2)c1 (centres unmarked) [Example 503]	E (E = >25-75% remaining)	≥ 25	≥ 25	F (F = >75-100% remaining)
Cn1cnc(-c2ccc3c(c2)CN(C2CCC(=O)NC2=O)C3=O)c1-c1cc[nH]n1 (centres unmarked) [Example 504]	D (D = >10- 25% remaining)	≥ 25	≥ 25	F (F = >75-100% remaining)
Cn1ccc(-c2c(-c3ccc4c(c3)CN(C3CCC(=O)NC3=O)C4=O)ncn2C)n1 (centres unmarked) [Example 505]	D (D = >10- 25% remaining)	< 25	< 25	F (F = >75-100% remaining)
Cn1cnc(-c2ccc3c(c2)CN(C2CCC(=O)NC2=O)C3=O)c1-c1cccs1 (centres unmarked) [Example 506]	C (C = 0-10% remaining)	< 25	< 25	E (E = >25-75% remaining)
Cc1ncccc1-c1c(-c2ccc3c(c2)CN(C2CCC(=O)NC2=O)C3=O)ncn1C (centres unmarked) [Example 507]	E (E = >25-75% remaining)	< 25	≥ 25	F (F = >75-100% remaining)
COc1ccsc1-c1c(-c2ccc3c(c2)CN(C2CCC(=O)NC2=O)C3=O)ncn1C (centres unmarked) [Example 508]	D (D = >10- 25% remaining)	< 25	≥ 25	F (F = >75-100% remaining)
Cn1cnc(-c2ccc3c(c2)CN(C2CCC(=O)NC2=O)C3=O)c1-c1c[nH]c2ccccc12 (centres unmarked) [Example 509]	D (D = >10- 25% remaining)	< 25	< 25	E (E = >25-75% remaining)
Cn1cnc(-c2ccc3c(c2)CN(C2CCC(=O)NC2=O)C3=O)c1-c1ccc2[nH]ncc2c1 (centres unmarked) [Example 510]	C (C = 0-10% remaining)	< 25	≥ 25	E (E = >25-75% remaining)
Cn1cnc(-c2ccc3c(c2)CN(C2CCC(=O)NC2=O)C3=O)c1-c1cnn(C2CCC2)c1 (centres unmarked) [Example 511]	D (D = >10- 25% remaining)	< 25	≥ 25	F (F = >75-100% remaining)
Cc1c[nH]c2cc(-c3c(-c4ccc5c(c4)CN(C4CCC(=O)NC4=O)C5=O)ncn3C)ccc12 (centres unmarked) [Example 512]	C (C = 0-10% remaining)	< 25	< 25	F (F = >75-100% remaining)
Cn1cnc(-c2ccc3c(c2)CN(C2CCC(=O)NC2=O)C3=O)c1-c1ccc2c(cnn2C)c1 (centres unmarked) [Example 513]	C (C = 0-10% remaining)	< 25	≥ 25	F (F = >75-100% remaining)
Cn1cnc(-c2ccc3c(c2)CN(C2CCC(=O)NC2=O)C3=O)c1-c1ccc2c(c1)CCCO2 (centres unmarked) [Example 514]	C (C = 0-10% remaining)	< 25	≥ 25	E (E = >25-75% remaining)
Cn1cnc(-c2ccc3c(c2)CN(C2CCC(=O)NC2=O)C3=O)c1-c1ccc2sccc2c1 (centres unmarked) [Example 515]	C (C = 0-10% remaining)	< 25	< 25	E (E = >25-75% remaining)
Cn1cnc(-c2ccc3c(c2)CN(C2CCC(=O)NC2=O)C3=O)c1-c1cccc(-n2cccn2)c1 (centres unmarked) [Example 516]	D (D = >10- 25% remaining)	< 25	< 25	F (F = >75-100% remaining)
Cn1cnc(-c2ccc3c(c2)CN(C2CCC(=O)NC2=O)C3=O)c1-c1cnn(C2CCCCC2)c1 (centres unmarked) [Example 517]	E (E = >25-75% remaining)	≥ 25	< 25	F (F = >75-100% remaining)
Cn1cnc(-c2ccc3c(c2)CN(C2CCC(=O)NC2=O)C3=O)c1-c1cncnc1 (centres unmarked) [Example 520]	E (E = >25-75% remaining)	≥ 25	≥ 25	F (F = >75-100% remaining)
Cn1ccc(-c2c(-c3ccc4c(c3)CN(C3CCC(=O)NC3=O)C4=O)ncn2C)c1 (centres unmarked) [Example 521]	C (C = 0-10% remaining)	< 25	< 25	E (E = >25-75% remaining)
Cn1cnc(-c2ccc3c(c2)CN(C2CCC(=O)NC2=O)C3=O)c1-c1ccc(N)nc1 (centres unmarked) [Example 522]	D (D = >10- 25% remaining)	≥ 25	≥ 25	E (E = >25-75% remaining)
Cn1cnc(-c2ccc3c(c2)CN(C2CCC(=O)NC2=O)C3=O)c1-c1cncc(N)c1 (centres unmarked) [Example 523]	D (D = >10- 25% remaining)	≥ 25	≥ 25	E (E = >25-75% remaining)

Next, values leading:

CK1α Ymin (CK1α)	DC50 (CK1α) [nM]	DC50 (GSPT1) [nM]	GSPT1 Ymin (GSPT1)	SMILES
D (D = >10- 25% remaining)	< 25	< 25	E (E = >25-75% remaining)	Cn1cnc(-c2ccc3c(c2)CN(C2CCC(=O)NC2=O)C3=O)c1-c1cccnc1 (centres unmarked) [Example 482]
D (D = >10- 25% remaining)	< 25	< 25	F (F = >75-100% remaining)	Cc1occc1-c1c(-c2ccc3c(c2)CN(C2CCC(=O)NC2=O)C3=O)ncn1C (centres unmarked) [Example 483]
D (D = >10- 25% remaining)	< 25	< 25	F (F = >75-100% remaining)	COc1cncc(-c2c(-c3ccc4c(c3)CN(C3CCC(=O)NC3=O)C4=O)ncn2C)c1 (centres unmarked) [Example 486]
E (E = >25-75% remaining)	< 25	≥ 25	F (F = >75-100% remaining)	CC(C)n1ccc(-c2c(-c3ccc4c(c3)CN(C3CCC(=O)NC3=O)C4=O)ncn2C)n1 (centres unmarked) [Example 487]
C (C = 0-10% remaining)	< 25	< 25	E (E = >25-75% remaining)	Cn1cnc(-c2ccc3c(c2)CN(C2CCC(=O)NC2=O)C3=O)c1-c1ccc2occc2c1 (centres unmarked) [Example 489]
D (D = >10- 25% remaining)	< 25	≥ 25	E (E = >25-75% remaining)	CC(C)Cn1cc(-c2c(-c3ccc4c(c3)CN(C3CCC(=O)NC3=O)C4=O)ncn2C)cn1 (centres unmarked) [Example 491]
D (D = >10- 25% remaining)	< 25	≥ 25	F (F = >75-100% remaining)	Cn1cnc(-c2ccc3c(c2)CN(C2CCC(=O)NC2=O)C3=O)c1-c1ccc2cccnc2c1 (centres unmarked) [Example 493]
C (C = 0-10% remaining)	< 25	< 25	E (E = >25-75% remaining)	Cn1cnc(-c2ccc3c(c2)CN(C2CCC(=O)NC2=O)C3=O)c1-c1ccc2c(ccn2C)c1 (centres unmarked) [Example 496]
D (D = >10- 25% remaining)	< 25	< 25	F (F = >75-100% remaining)	Cn1cnc(-c2ccc3c(c2)CN(C2CCC(=O)NC2=O)C3=O)c1-c1ccc2cnn(C)c2c1 (centres unmarked) [Example 498]
E (E = >25-75% remaining)	< 25	≥ 25	F (F = >75-100% remaining)	Cn1cnc(-c2ccc3c(c2)CN(C2CCC(=O)NC2=O)C3=O)c1-c1cnc2c(ccn2C)c1 (centres unmarked) [Example 499]
C (C = 0-10% remaining)	< 25	≥ 25	F (F = >75-100% remaining)	Cn1cnc(-c2ccc3c(c2)CN(C2CCC(=O)NC2=O)C3=O)c1-c1ccc2ncn(C)c2c1 (centres unmarked) [Example 500]
C (C = 0-10% remaining)	< 25	≥ 25	F (F = >75-100% remaining)	Cc1nc2ccc(-c3c(-c4ccc5c(c4)CN(C4CCC(=O)NC4=O)C5=O)ncn3C)cc2[nH]1 (centres unmarked) [Example 501]
